Data reported in patent US6171829A, “Physiologically active substance PF1191 and process for producing the same” (Meiji Seika Kaisha, Ltd., priority 1997, dated 2001).
“Also recorded” adds a separate entry of the source.

Legend:
[1] = system: primarily cultured chick telencephalon nerve cells; conditions: Neuroscience Letters, vol. 139, 205-208 (1992); result in words; cited from earlier work
[2] = system: primarily cultured nerve cells of chick telencephalon; test: Inhibitory activity to kainic acid toxicity, primarily cultured nerve cells of chick telencephalon; type: cell-based
Procedure: (§1) The inhibitory activities to kainic acid toxicity of the substance PF1191 on primarily cultured nerve cells of chick telencephalon and rat hippocampus were examined. The test with the use of the primarily cultured nerve cells of chick telencephalon was carried out in accordance with the method reported in Neuroscience Letters, vol. 139, 205-208 […], while the test with the use of the primarily cultured nerve cells of rat hippocampus was carried out in accordance with the method reported in Brain Research, 126(1977) 397-425.
(§2) The molar concentration at which the cytotoxicity caused by the addition of 500 μM of kainic acid to the cultured cells was inhibited at a ratio of 50% was expressed in EC50 (effective concentration-fifty) in Table 1 below.

[3] = system: primarily cultured nerve cells of rat hippocampus; test: Inhibitory activity to kainic acid toxicity, primarily cultured nerve cells of rat hippocampus; type: cell-based
Procedure: as §1, §2

N#Cc1cc2[nH]c(=O)c(=O)[nH]c2cc1[N+](=O)[O-] [CNQX, 6-cyano-7-nitroquinoxaline-2,3-dione]
inhibition of kainic acid toxicity by non-NMDA receptor antagonists [1]: inhibited

O=c1[nH]c2cc([N+](=O)[O-])c([N+](=O)[O-])cc2[nH]c1=O [DNQX, 6,7-dinitroquinoxaline-2,3-dione]
inhibition of kainic acid toxicity by non-NMDA receptor antagonists [1]: inhibited

NS(=O)(=O)c1cccc2c1c([N+](=O)[O-])cc1[nH]c(=O)c(=O)[nH]c12 [NBQX, 6-nitro-7-sulfamoylbenzo[f]quinoxaline-2,3-dione]
inhibition of kainic acid toxicity by non-NMDA receptor antagonists [1]: inhibited

NC(C(=O)O)C(O)C1(C(=O)O)CCC(CC(NC(=O)c2cc(Cl)c(O)c(Cl)c2)C(=O)O)N1 (centres unmarked) [Substance PF1191]
EC50 ([2]; Gallus gallus, chick telencephalon nerve cells + kainic acid (500 μM), read-out: 50% Effective conc. (EC50), inhibitory activity to kainic acid toxicity): 1500 nM | inhibitory activity to kainic acid toxicity in comparison with DNQX ([2]; chick telencephalon nerve cells, kainic acid 500 μM, result in words): stronger inhibitory activity to kainic acid toxicity than that of DNQX; also recorded: stronger inhibitory activity to kainic acid toxicity in comparison with the known substance DNQX | EC50 ([3]; rat hippocampus nerve cells + kainic acid (500 μM), read-out: 50% Effective conc. (EC50), inhibitory activity to kainic acid toxicity): 450 nM | inhibitory activity to kainic acid toxicity in comparison with DNQX ([3]; rat hippocampus nerve cells, kainic acid 500 μM, result in words): stronger inhibitory activity to kainic acid toxicity in comparison with the known substance DNQX

C=C(C)[C@H]1CN[C@H](C(=O)O)[C@H]1CC(=O)O [kainic acid]
toxicity to primarily cultured chick telencephalon nerve cells [1]: toxic
